ChEMBL document CHEMBL5126627, “Structure-Kinetic Relationship Studies for the Development of Long Residence Time LpxC Inhibitors” (J Med Chem, 2022)
Converted amounts (≈) assume the structure as drawn. The source made the active and inactive calls. The calls are words filed in the database; no cut-off is given here.

Key:
Escherichia coli [1] = test: Antibacterial activity against Escherichia coli MB2884; assay type: functional
Pseudomonas aeruginosa [2] = test: Antibacterial activity against Pseudomonas aeruginosa PAO1 assessed as inhibition of bacterial growth incubated for 24 hrs by microdilution method; assay type: functional
Escherichia coli [3] = test: Antibacterial activity against Escherichia coli ATCC 25922; assay type: functional
Pseudomonas aeruginosa [4] = test: Antibacterial activity against Pseudomonas aeruginosa ATCC 27853; assay type: functional
[5] = Binding affinity to Pseudomonas aeruginosa LpxC assessed as inhibition constant incubated for 18 hrs by fluorescence based assay
Pseudomonas aeruginosa [6] = test: Binding affinity to Pseudomonas aeruginosa LpxC assessed as residence time incubated for 18 hrs by fluorescence based assay
Pseudomonas aeruginosa [7] = test: Binding affinity to Pseudomonas aeruginosa LpxC assessed as binding constant (Koff) incubated for 18 hrs by fluorescence based assay
Pseudomonas aeruginosa [8] = test: Antibacterial activity against Pseudomonas aeruginosa paEP assessed as inhibition of bacterial growth incubated for 24 hrs by microdilution method; assay type: functional
Pseudomonas aeruginosa [9] = test: Binding affinity to Pseudomonas aeruginosa LpxC assessed as binding constant (kon) incubated for 18 hrs by fluorescence based assay
Pseudomonas aeruginosa [10] = test: Bactericidal activity against Pseudomonas aeruginosa PAO1 assessed as reduction in 3log 10 CFU/ml at 4 to 16 times MIC incubated for 16 hrs by time-kill assay; assay type: functional, organism-based
Pseudomonas aeruginosa [11] = test: Antibacterial activity against Pseudomonas aeruginosa PAO1 assessed as post antibiotic effect by measuring time required for increase in 1 log10 CFU/ml of bacteria at 8X MIC incubated for 1 hr followed by compound washout; assay type: functional
Pseudomonas aeruginosa [12] = test: Binding affinity to Pseudomonas aeruginosa LpxC assessed as residence time incubated for 18 hrs by spin column assay
Pseudomonas aeruginosa [13] = test: Antibacterial activity against Pseudomonas aeruginosa PAO1 assessed as post antibiotic effect by measuring time required for increase in 1 log10 CFU/ml of bacteria at 16X MIC incubated for 1 hr followed by compound washout; assay type: functional
Pseudomonas aeruginosa [14] = test: Antibacterial activity against Pseudomonas aeruginosa PAO1 assessed as post antibiotic effect by measuring time required for increase in 1 log10 CFU/ml of bacteria at 4X MIC incubated for 1 hr followed by compound washout; assay type: functional

MIC (Escherichia coli [1]) | MIC (Escherichia coli [3]) | MIC (Pseudomonas aeruginosa [4]) | Compound | MIC (Pseudomonas aeruginosa [2]) | Ki [5] | TIME (Pseudomonas aeruginosa [6]) | K (Pseudomonas aeruginosa [7]) | MIC (Pseudomonas aeruginosa [8]) | K (Pseudomonas aeruginosa [9]) | Activity (Pseudomonas aeruginosa [10]) | Time (Pseudomonas aeruginosa [11]) | TIME (Pseudomonas aeruginosa [12]) | Time (Pseudomonas aeruginosa [13]) | Time (Pseudomonas aeruginosa [14])
1 µg/mL (≈ 3.24 µM) | – | – | CCCc1cc(C2=N[C@@H](C(=O)NO)CO2)cc(OC)c1OC | – | – | – | – | – | – | – | – | – | – | –
– | – | – | COc1ccc(-c2ccn(CC[C@](C)(C(=O)NO)S(C)(=O)=O)c(=O)c2)c(F)c1 | 0.625 µM (≈ 0.258 µg/mL) | – | – | – | – | – | – | – | – | – | –
– | 0.2 µg/mL (≈ 0.457 µM) | – | C[C@@H](O)[C@H](NC(=O)c1ccc(C#Cc2ccc(CN3CCOCC3)cc2)cc1)C(=O)NO | – | – | – | – | – | – | – | – | – | – | –
– | 1 µg/mL (≈ 2.38 µM) | > 0.25 µg/mL | O=C(NO)[C@H](Cc1ccc2ccccc2c1)NS(=O)(=O)c1ccc2ccccc2c1 | – | – | – | – | – | – | – | – | – | – | –
– | – | – | COc1ccc(-c2ccc(CNC3(C(=O)NO)CCS(=O)(=O)CC3)cc2F)cc1 | 0.8 µM (≈ 0.338 µg/mL) | 14.4 pM | 0.572 h | 0.00049 s⁻¹ | 0.1 µM (≈ 0.0422 µg/mL) | 3.45e+07 M⁻¹ s⁻¹ | – | – | – | – | –
– | – | – | COc1ccc(-c2ccc(CNC3(C(=O)NO)CCS(=O)(=O)CC3)cc2)c(F)c1 | 0.4 µM (≈ 0.169 µg/mL) | 37.9 pM | 0.533 h | 0.00053 s⁻¹ | 0.03 µM (≈ 0.0127 µg/mL) | 1.66e+07 M⁻¹ s⁻¹ | Active | 1.3 h | 79 h | 1.7 h | 1 h
– | – | – | C[C@@H](O)C(NC(=O)c1ccc(-c2cn(Cc3ccccc3)nn2)cc1)C(=O)NO (mixture of isomers) | > 50 µM | – | – | – | > 12.5 µM | – | – | – | – | – | –
– | – | – | CC(CCn1ccc(-c2ccccc2)cc1=O)(C(=O)NO)S(C)(=O)=O (racemic) | 3.12 µM (≈ 1.14 µg/mL) | – | – | – | 0.2 µM (≈ 0.0729 µg/mL) | – | Active | 1.1 h | – | 1.3 h | 0.7 h
– | – | – | CC(CCn1ccc(-c2ccc(-c3cnnn3Cc3ccccc3)cc2)cc1=O)(C(=O)NO)S(C)(=O)=O (racemic) | 50 µM (≈ 26.1 µg/mL) | 67.7 pM | 0.15 h | 0.00187 s⁻¹ | 12.5 µM (≈ 6.52 µg/mL) | 2.78e+07 M⁻¹ s⁻¹ | – | – | – | – | –
– | – | – | CC(CCn1ccc(-c2ccc(-c3cn(CCO)nn3)cc2)cc1=O)(C(=O)NO)S(C)(=O)=O (racemic) | > 50 µM | 3.7 pM | – | 0.00018 s⁻¹ | > 12.5 µM | 5.96e+07 M⁻¹ s⁻¹ | – | – | – | – | –
– | – | – | COc1ccc(-c2ccn(CCC(C)(C(=O)NO)S(C)(=O)=O)c(=O)c2)cc1 (racemic) | 3.12 µM (≈ 1.23 µg/mL) | – | – | – | 0.8 µM (≈ 0.316 µg/mL) | – | – | – | – | – | –
– | – | – | CC(CCn1ccc(-c2ccc(-c3cn(CC45CC(C4)C5)nn3)cc2)cc1=O)(C(=O)NO)S(C)(=O)=O (racemic) | 12.5 µM (≈ 6.4 µg/mL) | 2.1 pM | – | 0.00015 s⁻¹ | 0.78 µM (≈ 0.399 µg/mL) | 8.52e+07 M⁻¹ s⁻¹ | – | – | – | – | 4 h
– | – | – | CC(CCn1ccc(-c2ccc(CN3CCOCC3)cc2)cc1=O)(C(=O)NO)S(C)(=O)=O (racemic) | 50 µM (≈ 23.2 µg/mL) | 96.8 pM | 0.0783 h | 0.0035 s⁻¹ | – | 3.64e+07 M⁻¹ s⁻¹ | – | – | – | – | –
– | – | – | CC(CCn1ccc(-c2ccc(-c3cn(Cc4ccc([N+](=O)[O-])cc4)nn3)cc2)cc1=O)(C(=O)NO)S(C)(=O)=O (racemic) | 6.25 µM (≈ 3.54 µg/mL) | 7 pM | 1.31 h | 0.00021 s⁻¹ | 0.1 µM (≈ 0.0567 µg/mL) | 3.07e+07 M⁻¹ s⁻¹ | – | – | – | – | –
– | – | – | CC1(Cn2cc(-c3ccc(-c4ccn(CCC(C)(C(=O)NO)S(C)(=O)=O)c(=O)c4)cc3)nn2)COC1 (racemic) | 25 µM (≈ 12.9 µg/mL) | – | – | – | 1.56 µM (≈ 0.804 µg/mL) | – | – | – | – | – | –
– | – | – | CC(CCn1ccc(-c2ccc(-c3cn(CC4CC4)nn3)cc2)cc1=O)(C(=O)NO)S(C)(=O)=O (racemic) | 3.12 µM (≈ 1.52 µg/mL) | 10.2 pM | 1.11 h | 0.00025 s⁻¹ | 0.4 µM (≈ 0.194 µg/mL) | 2.64e+07 M⁻¹ s⁻¹ | Active | 2.2 h | 191 h | 3.1 h | 1.6 h
– | – | – | CC(CCn1ccc(-c2ccc(-c3cn(Cc4ccc(F)cc4)nn3)cc2)cc1=O)(C(=O)NO)S(C)(=O)=O (racemic) | 1.56 µM (≈ 0.842 µg/mL) | 8 pM | 1.14 h | 0.00025 s⁻¹ | 0.05 µM (≈ 0.027 µg/mL) | 3.38e+07 M⁻¹ s⁻¹ | Active | 2.5 h | 106 h | 3.5 h | 1.7 h
– | – | – | CC(CCn1ccc(-c2ccc(-c3cn(Cc4cccnc4)nn3)cc2)cc1=O)(C(=O)NO)S(C)(=O)=O (racemic) | – | 3.2 pM | 2.02 h | 0.00014 s⁻¹ | – | 4.28e+07 M⁻¹ s⁻¹ | – | – | – | – | –
– | – | – | CC(CCn1ccc(-c2ccc(C(=O)NCc3ccccc3)cc2)cc1=O)(C(=O)NO)S(C)(=O)=O (racemic) | 25 µM (≈ 12.4 µg/mL) | 274 pM | 0.133 h | 0.0021 s⁻¹ | 3.12 µM (≈ 1.55 µg/mL) | 2.38e+07 M⁻¹ s⁻¹ | – | – | – | – | –
– | – | – | CC(CCn1ccc(-c2ccc(-c3cn(Cc4ccccn4)nn3)cc2)cc1=O)(C(=O)NO)S(C)(=O)=O (racemic) | 6.25 µM (≈ 3.27 µg/mL) | 5.5 pM | – | – | 0.2 µM (≈ 0.105 µg/mL) | 3.72e+07 M⁻¹ s⁻¹ | – | – | – | – | –
– | – | – | CC(CCn1ccc(-c2ccc(-n3nccn3)cc2)cc1=O)(C(=O)NO)S(C)(=O)=O (racemic) | 1.56 µM (≈ 0.673 µg/mL) | – | – | – | 0.4 µM (≈ 0.173 µg/mL) | – | Active | 2.2 h | – | 3.4 h | 1.4 h
– | – | – | CC(CCn1ccc(-c2ccc(-c3cn(Cc4ccccc4)nn3)cc2)cc1=O)(C(=O)NO)S(C)(=O)=O (racemic) | 12.5 µM (≈ 6.52 µg/mL) | 10.6 pM | 0.955 h | 0.00032 s⁻¹ | 0.78 µM (≈ 0.407 µg/mL) | 4.38e+07 M⁻¹ s⁻¹ | – | – | – | – | –
– | – | – | CC(CCn1ccc(-c2ccc(-c3cn(CC4CCCCC4)nn3)cc2)cc1=O)(C(=O)NO)S(C)(=O)=O (racemic) | 50 µM (≈ 26.4 µg/mL) | 5.5 pM | 1.67 h | 0.00017 s⁻¹ | 3.12 µM (≈ 1.65 µg/mL) | 3.1e+07 M⁻¹ s⁻¹ | – | – | – | – | –
– | – | – | CC(CCn1ccc(-c2ccc(-c3cn(Cc4ccncc4)nn3)cc2)cc1=O)(C(=O)NO)S(C)(=O)=O (racemic) | 50 µM (≈ 26.1 µg/mL) | – | – | – | 6.25 µM (≈ 3.27 µg/mL) | – | – | – | – | – | –
– | – | – | CC(CCn1ccc(-c2ccc(NC(=O)Cc3ccccc3)cc2)cc1=O)(C(=O)NO)S(C)(=O)=O (racemic) | 50 µM (≈ 24.9 µg/mL) | 95.4 pM | 0.0667 h | 0.0043 s⁻¹ | 3.12 µM (≈ 1.55 µg/mL) | 4.48e+07 M⁻¹ s⁻¹ | – | – | – | – | –
– | – | – | CC(CCn1ccc(-c2ccc(-c3cn(Cc4ccncn4)nn3)cc2)cc1=O)(C(=O)NO)S(C)(=O)=O (racemic) | 50 µM (≈ 26.2 µg/mL) | 4.2 pM | 1.71 h | 0.00017 s⁻¹ | 3.12 µM (≈ 1.64 µg/mL) | 4.43e+07 M⁻¹ s⁻¹ | – | – | – | – | –
– | – | – | C=CCn1cc(-c2ccc(-c3ccn(CCC(C)(C(=O)NO)S(C)(=O)=O)c(=O)c3)cc2)nn1 (racemic) | 12.5 µM (≈ 5.89 µg/mL) | 6.1 pM | 1.38 h | 0.00022 s⁻¹ | 0.78 µM (≈ 0.368 µg/mL) | 5.2e+07 M⁻¹ s⁻¹ | – | – | 146 h | – | –
– | 0.125 µg/mL (≈ 0.338 µM) | 0.25 µg/mL (≈ 0.677 µM) | CC(C)(N)[C@H](NC(=O)c1ccc(C#CC#C[C@@H]2C[C@H]2CO)cc1)C(=O)NO [ACHN-975] | – | – | – | – | – | – | – | – | – | – | –
